Laboratory results from ChEMBL document CHEMBL3885861, “Open TG-GATES”.

Species: Rattus norvegicus
Experiment: Open TG-GATES - Regimen: Single
Format: toxicity, organism-based, Sprague-Dawley
Set-up: regimen Single, gender Male, age 6 weeks
Conditions: in vivo, po, 50 mg/kg, route gavage, dose level Middle; for APTT / Bas / Eos / Fbg / Hb / Ht / Lym / MCH / MCHC / MCV / Mono / Neu / PT / Plat / RBC / Ret / WBC: tissue Blood; for KIDNEY_L / KIDNEY_R / KIDNEY_TOTAL: tissue Kidney; for LIVER: tissue Liver; for A/G / ALP / ALT / AST / BUN / CRE / Ca / Cl / DBIL / GLC / IP / K / LDH / Na / PL / RALB / TBIL / TC / TG / TP / gamma-GTP: tissue Plasma

**Q.** Which results are given for O=c1ccc2ccccc2o1 [COUMARIN]?
**A.** TERMINAL_BW (3 h): 184.1 g; APTT (3 h): 16.3 s; Bas (3 h): 0%; Eos (3 h): 0.6%; Fbg (3 h): 198 mg/dL; Hb (3 h): 13.4 g/dL; Ht (3 h): 40.4%; Lym (3 h): 81.4%; MCH (3 h): 21.9 pg; MCHC (3 h): 33.2%; MCV (3 h): 65.9 fL; Mono (3 h): 4%; Neu (3 h): 14.2%; PT (3 h): 12.7 s; Plat (3 h): 114.8 x10_4/uL; RBC (3 h): 613.6 x10_4/ul; Ret (3 h): 9.3%; WBC (3 h): 104.2 x10_2/uL; KIDNEY_L (3 h): 0.9 g; KIDNEY_R (3 h): 0.9 g; KIDNEY_TOTAL (3 h): 1.7 g; LIVER (3 h): 8.1 g; A/G (3 h): 2.3; ALP (3 h): 989.4 IU/L; ALT (3 h): 39.4 IU/L; AST (3 h): 68 IU/L; BUN (3 h): 12 mg/dL; CRE (3 h): 0.5 mg/dL; Ca (3 h): 10.7 mg/dL; Cl (3 h): 103.2 meq/L; DBIL (3 h): 0.032 mg/dL; GLC (3 h): 191.4 mg/dL; IP (3 h): 10.4 mg/dL; K (3 h): 4.7 meq/L; LDH (3 h): 74.4 IU/L; Na (3 h): 138 meq/L; PL (3 h): 141 mg/dL; RALB (3 h): 3.8 g/dL; TBIL (3 h): 0.3 mg/dL; TC (3 h): 76.4 mg/dL; TG (3 h): 49.8 mg/dL; TP (3 h): 5.5 g/dL; gamma-GTP (3 h): 1 IU/L; TERMINAL_BW (6 h): 180.4 g; APTT (6 h): 16.5 s; Bas (6 h): 0%; Eos (6 h): 0.8%; Fbg (6 h): 210.2 mg/dL; Hb (6 h): 13.5 g/dL; Ht (6 h): 40.4%; Lym (6 h): 79.8%; MCH (6 h): 21.7 pg; MCHC (6 h): 33.3%; MCV (6 h): 65 fL; Mono (6 h): 5.8%; Neu (6 h): 13.8%; PT (6 h): 12.8 s; Plat (6 h): 104.8 x10_4/uL; RBC (6 h): 620.8 x10_4/ul; Ret (6 h): 9.7%; WBC (6 h): 103 x10_2/uL; KIDNEY_L (6 h): 0.8 g; KIDNEY_R (6 h): 0.9 g; KIDNEY_TOTAL (6 h): 1.7 g; LIVER (6 h): 7.7 g; A/G (6 h): 2.1; ALP (6 h): 1018 IU/L; ALT (6 h): 37.2 IU/L; AST (6 h): 70 IU/L; BUN (6 h): 11.4 mg/dL; CRE (6 h): 0.5 mg/dL; Ca (6 h): 10.4 mg/dL; Cl (6 h): 106 meq/L; DBIL (6 h): 0.004 mg/dL; GLC (6 h): 183 mg/dL; IP (6 h): 10.2 mg/dL; K (6 h): 5 meq/L; LDH (6 h): 98.6 IU/L; Na (6 h): 138.4 meq/L; PL (6 h): 155.6 mg/dL; RALB (6 h): 3.7 g/dL; TBIL (6 h): 0.3 mg/dL; TC (6 h): 89 mg/dL; TG (6 h): 62.4 mg/dL; TP (6 h): 5.6 g/dL; gamma-GTP (6 h): 1.4 IU/L; TERMINAL_BW (9 h): 175.7 g; APTT (9 h): 16.7 s; Bas (9 h): 0%; Eos (9 h): 0.6%; Fbg (9 h): 186.4 mg/dL; Hb (9 h): 13.3 g/dL; Ht (9 h): 40.2%; Lym (9 h): 77.6%; MCH (9 h): 22.1 pg; MCHC (9 h): 33.2%; MCV (9 h): 66.6 fL; Mono (9 h): 6.2%; Neu (9 h): 15.6%; PT (9 h): 13 s; Plat (9 h): 102.3 x10_4/uL; RBC (9 h): 606 x10_4/ul; Ret (9 h): 9.6%; WBC (9 h): 95.4 x10_2/uL; KIDNEY_L (9 h): 0.8 g; KIDNEY_R (9 h): 0.8 g; KIDNEY_TOTAL (9 h): 1.7 g; LIVER (9 h): 7.2 g; A/G (9 h): 2.1; ALP (9 h): 1020.8 IU/L; ALT (9 h): 38.6 IU/L; AST (9 h): 74.2 IU/L; BUN (9 h): 11.4 mg/dL; CRE (9 h): 0.5 mg/dL; Ca (9 h): 11.1 mg/dL; Cl (9 h): 106 meq/L; DBIL (9 h): 0.052 mg/dL; GLC (9 h): 189.6 mg/dL; IP (9 h): 10.7 mg/dL; K (9 h): 5.1 meq/L; LDH (9 h): 104.6 IU/L; Na (9 h): 139 meq/L; PL (9 h): 141.4 mg/dL; RALB (9 h): 3.7 g/dL; TBIL (9 h): 0.3 mg/dL; TC (9 h): 79.4 mg/dL; TG (9 h): 63 mg/dL; TP (9 h): 5.5 g/dL; gamma-GTP (9 h): 1 IU/L; TERMINAL_BW (24 h): 189.1 g; APTT (24 h): 15.5 s; Bas (24 h): 0%; Eos (24 h): 1.6%; Fbg (24 h): 192 mg/dL; Hb (24 h): 13.4 g/dL; Ht (24 h): 40.2%; Lym (24 h): 76.4%; MCH (24 h): 22 pg; MCHC (24 h): 33.4%; MCV (24 h): 66 fL; Mono (24 h): 11.4%; Neu (24 h): 11.2%; PT (24 h): 12.4 s; Plat (24 h): 110.8 x10_4/uL; RBC (24 h): 609 x10_4/ul; Ret (24 h): 8.4%; WBC (24 h): 100 x10_2/uL; KIDNEY_L (24 h): 0.9 g; KIDNEY_R (24 h): 0.9 g; KIDNEY_TOTAL (24 h): 1.8 g; LIVER (24 h): 9.4 g; A/G (24 h): 2.3; ALP (24 h): 978.2 IU/L; ALT (24 h): 48 IU/L; AST (24 h): 74.6 IU/L; BUN (24 h): 15 mg/dL; CRE (24 h): 0.6 mg/dL; Ca (24 h): 10.9 mg/dL; Cl (24 h): 105.8 meq/L; DBIL (24 h): 0.012 mg/dL; GLC (24 h): 186.8 mg/dL; IP (24 h): 8 mg/dL; K (24 h): 5.1 meq/L; LDH (24 h): 113 IU/L; Na (24 h): 138.2 meq/L; PL (24 h): 140.2 mg/dL; RALB (24 h): 3.8 g/dL; TBIL (24 h): 0.3 mg/dL; TC (24 h): 77 mg/dL; TG (24 h): 66.6 mg/dL; TP (24 h): 5.5 g/dL; gamma-GTP (24 h): 1.2 IU/L
